Laboratory results published in patent publication US8318941B2, “Pyridone/hydroxypyridine 11-beta hydroxysteroid dehydrogenase type I inhibitors” (Bristol-Myers Squibb Company, priority 2006, dated 2012).

Target: T1, 11beta-HSD1 (Homo sapiens, UniProt P28845)
Experiment: In vitro inhibition of recombinant human 11beta-HSD1 (microsomal Scintillation Proximity Assay)
Assay type: biochemical
Set-up: made in house; microsomal fraction used as enzyme source
Settings: microsomes from HEK 293 EBNA cells, 250 nM [3H]-cortisone, 500 μM NADPH, pH 6.5, room temperature
Method: The in vitro inhibition of recombinant human 11beta-HSD1 was determined as follows.
Cells were grown in DMEM (high glucose) containing MEM non-essential amino acids, L-glutamine, hygromycine B (200 ug/ml), and G418(200 ug/ml). The cell pellets were homogenized, and the microsomal fraction was obtained by differential centrifugation. 11beta-HSD1 over expressed microsomes were used as the enzyme source for the Scintillation Proximity Assay (SPA). […] The reaction was terminated with the addition of 1 mM 18β-glycerrhentic acid. SPA reagent mixture (YSi anti-rabbit IgG, anti-cortisol antibody in 50 mM Tris, pH 8.0 containing 1% CHAPS and 1% glycerol) was added and the reaction was further incubated at room temperature over night and counted in TopCount. […]

T1 sequence (P28845 whole entry): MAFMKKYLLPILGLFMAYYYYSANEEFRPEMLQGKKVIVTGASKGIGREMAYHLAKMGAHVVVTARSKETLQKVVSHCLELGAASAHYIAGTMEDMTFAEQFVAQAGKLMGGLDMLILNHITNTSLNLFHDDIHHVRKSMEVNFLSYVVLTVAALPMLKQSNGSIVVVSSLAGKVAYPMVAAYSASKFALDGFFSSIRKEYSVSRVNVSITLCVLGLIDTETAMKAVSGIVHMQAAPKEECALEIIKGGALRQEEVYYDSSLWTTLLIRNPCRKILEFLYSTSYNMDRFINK

Molecule | IC50
NC(=O)c1c(O)nc(SCc2ccccc2Cl)c2c1CCCC2 [Example 3, 1-(2-Chlorobenzylthio)-3-hydroxy-5,6,7,8-tetrahydroisoquinoline-4-carboxamide] | > 10000 nM
O=C(O)c1c(O)nc(SCc2ccccc2Cl)c2c1CCCC2 [Example 6, 1-(2-Chlorobenzylthio)-3-hydroxy-5,6,7,8-tetrahydroisoquinoline-4-carboxylic acid] | 470 nM
Oc1cc2c(c(SCc3ccccc3Cl)n1)N1CCC2CC1 [Example 29] | > 10000 nM
N#Cc1c(O)nc(SCc2cccnc2Cl)c2c1CCCC2 [Example 32] | 2.73 nM
N#Cc1c(O)nc(SCc2ccccc2Cl)c2c1CCNC2 [Example 35] | 460 nM
O=S(=O)(Cc1cccc(Cl)c1)c1nc(O)c(Cl)c2ccccc12 [Example 118] | 530 nM
N#Cc1ccccc1CSc1nc(O)c(Cl)c2ccccc12 [Example 130] | 2.7 nM
N#Cc1ccccc1CSc1nc(O)c(Cl)c2ccc(Cl)cc12 [Example 132] | 2.26 nM
N#Cc1ccncc1CSc1nc(O)c(C#N)c2ccc(F)cc12 [Example 170] | 1.49 nM

Further lines, results first:

IC50 | Molecule
780 nM | Oc1nc(SCc2cccc(Cl)c2)c2ccccc2c1Cl [Example 115]
288 nM | N#Cc1ccccc1-c1c(O)nc(SCc2ccccc2Cl)c2c1CCCC2 [Example 292]
3 nM | N#Cc1cccc(Cl)c1CSc1nc(O)c(C#N)c2ccc(F)cc12 [Example 181]
2.73 nM | N#Cc1c(O)nc(SCc2cnccc2Cl)c2cc(F)ccc12 [Example 164]
2.58 nM | N#Cc1c(O)nc(SCc2cc(F)ccc2F)c2cc(F)ccc12 [Example 175]

Same assay, conditions: read-out: IC50 (concentration of compound required for 50% inhibition of cortisol formation); microsomes from HEK 293 EBNA cells, 250 nM [3H]-cortisone, 500 μM NADPH, pH 6.5, room temperature

Molecule | IC50
4,7-Dichloro-1-(2-chlorobenzylthio)isoquinolin-3-ol [Example 109] | 671 nM

Target: T1, 11beta-HSD1
Experiment: not given
Set-up: host or cells: patients (liver), in vivo
Settings: patients with type 2 diabetes, seven day treatment, versus placebo; cited from earlier work

Molecule | hepatic glucose production
CC1(C)[C@@H](OC(=O)CCC(=O)O)CC[C@]2(C)[C@H]3C(=O)C=C4[C@@H]5C[C@@](C)(C(=O)O)CC[C@]5(C)CC[C@@]4(C)[C@]3(C)CC[C@@H]12 [carbenoxolone] | decrease in hepatic glucose production
